Measurements published in patent US6872727B1, “Polycyclic pyrimidine -2,4(1H,3H)-diones with functionalized alkyl residues at the 1- and/or 3-position(s); methods for their synthesis and pharmaceutical preparation” (Privates Institut fur Biomedizinische Forschung und Beratung, priority 1999, dated 2005).

Biological target: T1, human matrix metalloproteinase-9 (MMP-9; gelatinase B) (Homo sapiens, UniProt P14780)
T1 construct: from tissue; host or cells: human buffy coat (blood leukocytes)
Assay: Inhibition of human matrix metalloproteinase-9 (gelatinase B)
Format: biochemical
Conditions: trypsin-activated native MMP-9 from human buffy coat
Method: Native MMP-9 was reproducibly obtained with reasonable yield and purity from human buffy coat. Buffy coat, to which was added an appropriate volume of 10% (v/v) Triton-X-100 to obtain a final concentration of 0,4% detergent, was shaken on ice for 30 min; then, one volume of twofold-concentrated binding buffer (40 mM Tris-HCl pH 7,5, 10 mM CaCl2, 1 M NaCl, 0,2% (v/v) Triton X-100 was added and the mixture shaken on ice for a further 30 min.
The mixture was then centrifuged for 15 min at 16,000 rpm (30,590×g) in a Kendro SS-34 rotor at 4° C. and the resulting supernatant filtered over glass wool. The filtrate was incubated batchwise with gelatin-agarose equilibrated in binding buffer for 1 h on ice with continuous shaking The MMP-9-bound gelatin-agarose was then loaded into a chromatographic tube and the column washed with at least ten bed volumes of binding buffer, or until no protein was detected by absorbance at 280 nm in the wash buffer. MMP-9 was eluted from the gelatin affinity column by application of two bed volumes of binding buffer containing 5% (v/v) dimethylsulfoxide (DMSO).
The eluate was applied to a gel filtration column of Sephadex G-75 both to exchange buffer and to eliminate small amounts of contaminating MMP-2. The G-75 column was prepared and eluted with Buffer I [20 mM Tris-HCl pH 7,5, 5 mM CaCl2, 100 mM NaCl, 0,1% (v/v) Triton X-100].
The eluted MMP-9 includes the three characterized forms of the enzyme: monomer, homodimer, and heterodimer (complex with lipokalin). The purity of MMP-9 was estimated to be ca. 90%, with the remaining contaminating protein being fibronectin and small amounts of TIMPS.
The latent MMP-9 was activated by a 30-60 min incubation at 37° C. with 1/100 vol trypsin (10 mg ml^−1). The trypsin was subsequently inactivated by addition of the serine proteinase inhibitor phenlymethylsulfonylfluoride (PMSF) or the more specific trypsin inhibitor TLCK.
The enzymatic cleavage of commercially available synthetic internally quenched fluorigenic peptide substrates such as 7-methylcoumarin-4-yl-acetyl-prolyleucyl-glycyl-leucyl-(dinitrophenyl-L-α,β-diaminopropionyl)-alanyl-arginylamide (Mca-Pro-Leu-Gly-Leu-Dap(Dnp)-Ala-Arg-NH2) at the scissile -Gly-Leu-peptide bond separates the fluorescent Mca group from the dinitrophenol quencher, resulting in a strong linear increase in fluorescence intensity that can be readily measured in a fluorimeter (λexitation328 nm, λemission 393 nm) over the first few minutes of the reaction. The specificity of the assay for matrix metalloproteinases is provided by the type I collagen-derived sequence -Pro-Leu-Gly-Leu- in the synthetic substrate, as well as by the incubation conditions. To test the efficacy of the synthetic collagenase/MMP inhibitors, the residual enzymatic activity remaining after an incubation of enzyme plus different amounts of inhibitor is measured at a fixed enzyme and substrate concentration. For each inhibitor, three test series at different fixed substrate concentrations were carried out. From the time-dependent increase in fluorescence intensity measured, the velocity (v) of the enzymatic activity can be calculated as increase in arbitrary fluorescence intensity units per minute. The inhibition constant Ki is calculated graphically by the method of Dixon (1953) by plotting the reciprocal of the reaction velocity 1/v on the ordinate, and the inhibitor concentration on the abscissa. The x-intercept of the linear plot is defined as minus K1 value.
1984 μl assay buffer (100 mM Tris-HCl pH 7,5, 100 mM NaCl, 10 mM CaCl2, 0,05% Brij 35) • 2 μl inhibitor dissolved in DMSO, or DMSO alone as a solvent control • 4 μl enzyme (MMP-2, MMP-9, or the catalytic domain of MMP-8) • 10 μl Mca-Pro-Leu-Gly-Leu-Dap(Dnp)-Ala-Arg-NH2 in DMSO Method • 1. Incubate buffer, enzyme, and inhibitor for 5 min at room temperature, with stirring. • 2. Start the reaction by adding 10 μl substrate in DMSO • 3. Record the increase in fluorescence intensity over 2 min. […]

T1 sequence (P14780 107-707 limits assumed): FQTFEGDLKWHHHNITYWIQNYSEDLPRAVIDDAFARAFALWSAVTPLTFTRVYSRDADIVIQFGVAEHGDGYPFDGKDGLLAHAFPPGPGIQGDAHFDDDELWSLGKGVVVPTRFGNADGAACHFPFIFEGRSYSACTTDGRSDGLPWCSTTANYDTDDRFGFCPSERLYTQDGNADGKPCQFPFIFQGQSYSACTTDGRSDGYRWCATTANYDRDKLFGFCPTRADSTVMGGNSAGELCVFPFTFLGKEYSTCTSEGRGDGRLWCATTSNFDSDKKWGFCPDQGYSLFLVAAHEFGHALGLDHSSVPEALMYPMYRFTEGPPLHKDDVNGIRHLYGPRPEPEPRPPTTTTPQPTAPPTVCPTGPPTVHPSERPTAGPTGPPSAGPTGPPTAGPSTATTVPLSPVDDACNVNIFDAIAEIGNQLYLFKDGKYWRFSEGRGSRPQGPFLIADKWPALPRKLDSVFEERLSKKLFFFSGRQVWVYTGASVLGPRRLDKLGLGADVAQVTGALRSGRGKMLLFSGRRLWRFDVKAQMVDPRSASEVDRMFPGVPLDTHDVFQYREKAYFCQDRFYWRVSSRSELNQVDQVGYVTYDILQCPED

Row | Compound | MMP-9 (50% inhibition)
1 | CC(S)CCn1c(=O)[nH]c(=O)c2ccccc21 (racemic) [Example 3, (R,S)-1-(3-mercaptobut-1-yl)-chinazolin-2,4(1H,3H)-dione] | negative

Same assay, conditions: trypsin-activated native MMP-9 from human buffy coat; read-out: MMP-9 (50% inhibition)

Row | Compound | IC50 [µM]
2 | O=c1[nH]c(=O)n(CCCS)c2ccccc12 [Example 4, 1-(3-mercaptopropyl)-chinazolin-2,4(1H,3H)-dione] | 6
3 | O=c1[nH]c(=O)n(CCS)c2ccccc12 [Example 5, 1-(2-mercaptoethyl)-chinazolin-2,4(1H,3H)-dione] | 12.5
4 | Cn1c(=O)c2ccccc2n(CCCS)c1=O [Example 7, 1-(3-mercaptoprop-1-yl)-3-methyl-chinazolin-2,4(1H,3H)-dione] | 71.4
5 | Cn1c(=O)c2sccc2n(CCCS)c1=O [Example 14, 1-(3-mercaptoprop-1-yl)-3-methyl-thieno(3,2-d)-pyrimidin-2,4(1H,3H)-dione] | 50

Next, values leading:

Row | IC50 [µM] | Compound
6 | 10 | CC(CCS)n1c(=O)[nH]c2ccccc2c1=O (racemic) [Example 18, (R,S)-3-[3-(1-methyl)-mercaptopropyl]-chinazolin-2,4(1H,3H)-dione]
7 | 20 | O=c1[nH]c2ccccc2c(=O)n1CCCCS [Example 12, 3-(4-mercaptobut-1-yl)-chinazolin-2,4(1H,3H)-dione]
8 | 10 | Cn1c(=O)c2sccc2n(CCS)c1=O [Example 17, 1-(2-mercaptoethyl)-3-methyl-thieno[3,2-d]-pyrimidine-2,4(1H,3H)-dione]
